Results from US20150283127A1, “SAQUINAVIR-NO FOR IMMUNOMODULATION” (ONCONOX APS, priority 2012, published 2015).

Assays:
murine SPC = test: Viability of murine SPC (MTT mitochondrial activity assay); format: cell-based, mouse; conditions: minor compared with the influence on cytokines
Text: Experimental animals (C57BL/6 mice, BALB/c mice and Dark Agouti rats) were obtained from the Animal House Facility of the Institute for Biological Research “Sinisa Stanković”, Belgrade, Serbia. Spleen cells (SPC) were isolated from murine spleens and lymph node cells (LNC) were obtained from rat cervical lymph nodes of untreated animals. Draining lymph node cells (DLNC) were obtained from popliteal lymph nodes 8-10 days after immunization of rats with myelin basic protein (guinea pig MBP, kind gift from professor Alexander Fluegel, University of Goettingen, Germany) and complete Freund's adjuvant (CFA, Difco, Detroit, Mich.). The organs were mechanically disrupted, passed through 40-μm nylon mesh filter and the resulting suspension was collected by centrifugation. Red blood cells from single cell suspensions obtained from spleens were lysed using RBC Lysis Buffer (eBioscience, San Diego, Calif.). […] Obtained purity of CD4 population was more than 97% as determined by flow cytometry. […]
In order to assess the viability of SPC, LNC, DLNC and SCC by mitochondrial activity assay we used the mitochondrial-dependent reduction of 3-(4,5-dimethylthiazol-2-yl)-2,5-[…] bromide (MTT) to formazan. […] The absorbances in MTT assay were measured at […], with a correction at 690 nm, using an automated microplate reader (LKB 5060-006, LKB, Vienna, Austria).

murine CD4+ cells = test: Viability of murine CD4+ cells; format: cell-based, mouse; conditions: 24 hours; effect less than on cytokine generation
Description: In order to assess the viability of SPC, LNC, DLNC and SCC by mitochondrial activity assay we used the mitochondrial-dependent reduction of 3-(4,5-dimethylthiazol-2-yl)-[…] (MTT) to formazan. At the end of appropriate treatments, SPC and LNC were collected in tubes, spun down, supernatants removed and the cell pellets dissolved in […] MTT (Sigma-Aldrich) solution. Incubation with MTT lasted for 30 minutes at 37° C. and cells were centrifuged once more. DMSO was added to the pellets to dissolve the formazan crystals. The absorbances in MTT assay were measured at […], with a correction at 690 nm, using an automated microplate reader (LKB 5060-006, LKB, Vienna, Austria).
CD4+ cells were purified from C57BL/6 SPC and stimulated with anti-CD3 and anti-CD28 antibodies in the presence of various concentrations of Saq-NO for 24 hours. The influence of Saq-NO on cytokine generation was compared to its influence on CD4+ cell viability and to the influence of Saq on the same parameters. […] Thus, Saq-NO directly affects T cell cytokine production.

SCC = test: IFN-g and IL-17 release from rat spinal cord infiltrating cells (SCC); format: cell-based; conditions: unstimulated SCC isolated at the peak of EAE
Text: Experimental animals (C57BL/6 mice, BALB/c mice and Dark Agouti rats) were obtained from the Animal House Facility of the Institute for Biological Research “Sinisa Stanković”, Belgrade, Serbia. Spleen cells (SPC) were isolated from murine spleens and lymph node cells (LNC) were obtained from rat cervical lymph nodes of untreated animals. Draining lymph node cells (DLNC) were obtained from popliteal lymph nodes 8-10 days after immunization of rats with myelin basic protein (guinea pig MBP, kind gift from professor Alexander Fluegel, University of Goettingen, Germany) and complete Freund's adjuvant (CFA, Difco, Detroit, Mich.). […] Obtained purity of CD4 population was more than 97% as determined by flow cytometry. […]
Cytokine concentration in cell culture supernatants was determined by sandwich ELISA using MaxiSorp plates (Nunc, Rochild, Denmark) and anti-cytokine paired antibodies according to the manufacturer's instructions. Samples were analyzed in duplicate for murine/rat IL-17, murine IL-10, murine TNF, murine IL-4 (eBioscience), murine IFN-γ, rat IFN-γ, rat IL-4 (R&D, Minneapolis, Minn.), rat IL-10 and rat TNF (BD Biosciences). The results were calculated using standard curves made on the basis of known concentrations of the appropriate recombinant cytokines.
Next, we determined the influence of Saq-NO on encephalitogen-specific generation of IFN-g and IL-17. […]

[1] = system: experimental autoimmune uveoretinitis (EAU); test: Experimental autoimmune uveoretinitis (EAU) in the Wistar rat, histology; format: in vivo
Description: Female Wistar Rats n=28 (8 weeks-old) were purchased from Pasteur Institute (Algiers, Algeria). These rats were acclimated to their new environment for one week before the start of experiments and kept under normal conditions with a 12 h dark/light cycle and free access to food and water.
These animals were divided into four groups:
Control group (n=6) it consisted in non treated animals
Vehicle group (n=6) received a daily intraperitoneal injection of DMSO at 20% starting from the day of immunization.
Retinal crude extract immunized rats (referred to as EAU group n=8) received a single subcutaneous injection of 200 μL with Retinal Crude Extract emulsified in complete Freund's adjuvant; CFA (v/v) and were left untreated.
SaqNO (reference) treated rats (n=8) they received a daily intraperitoneal injection of SaqNO at 10 μg/kg starting from the day of immunization.
Fresh bovine eyes (n=20) were used in the experiments. They were cut just in posterior to the ora serrata, the vitreous was then removed without causing retinal detachment. The retinas were removed carefully and put in PBS, pH 7.4. They were then subjected to three successive thermal shock (−20° C. and +37°) in order to release retinal antigens. The retinal crude extract was obtained after a centrifugation at 4000 rpm for 15 min and conserved at −20° C. until further utilization.
[…]. In parallel, all rats from each group were also sacrificed.
For histopathological analysis, eyes were enucleated from each group and fixed in 10% phosphate-buffered formaldehyde. Tissue sections of 5 μm thickness were stained with hematoxylin and eosin (H&E). Sections were examined using a standard microscope (Zeiss) and pictures were taken using a digital camera at ×40 resolution Histological criteria were based on the degree of architectural changes. The histological scores were assessed semi-quantitatively by microscopic examination as follows:
No morphological changes, 0; minimal morphological changes of the outer nuclear layer (ONL) in retina, 1; atrophy of INL, 2; disappearance of INL, 3; and damage of total retinal layers, 4.

HIV = conditions: cited from earlier work

CC(C)(C)NC(=O)C1C[C@@H]2CCCC[C@@H]2CN1CC(O[N+](=O)[O-])[C@H](Cc1ccccc1)NC(=O)C(CC(N)=O)NC(=O)c1ccc2ccccc2n1 (some centres unmarked) [Saq-NO, nitric ester of Saquinavir]
SPC viability (murine SPC): statistically significantly inhibited
CD4+ cell viability (murine CD4+ cells): statistically significantly inhibited
IFN-g and IL-17 release (SCC): potently inhibited
Uveitis clinical score ([1]; 10 μg/kg daily, P<0.05): improved significantly
Histological structure of retinal tissue ([1]; 10 μg/kg i.p. daily from immunization, day 14): ameliorated significantly
Histopathological scores ([1]; 10 μg/kg, P<0.05): ameliorated
Development of EAU ([1]; prophylactic treatment): prevents development of EAU
Anti-HIV potency relative to parental drug (HIV): retained
